EC50 data for six compounds are collected here from PubChem BioAssay AID1611 (NINDS Approved Drug Screening Program, 2009).

The EC50 is the concentration giving half of the maximal effect.

The subject of the assay is human cells, HSE-luciferase heat shock reporter. The experiment in a line: inducers of human heat shock response, cell-based, HSE luciferase (AID 1611). The settings on record: measured here: HSE reporter induction potency.

Consider `CC[C@H]1OC(=O)[C@H](C)[C@@H](O[C@H]2C[C@@](C)(OC)[C@@H](O)[C@H](C)O2)[C@H](C)[C@@H](O[C@@H]2O[C@H](C)C[C@H](N(C)C)[C@H]2O)[C@](C)(O)C[C@@H](C)CN(C)[C@H](C)[C@@H](O)[C@]1(C)O`, for which the EC50 came out at 4.6 µM. That is a single-digit micromolar value.

`C[C@H]1O[C@@H](O[C@H]2[C@@H](O)C[C@H](O[C@H]3[C@@H](O)C[C@H](O[C@H]4CC[C@]5(C)C6CC[C@]7(C)[C@@H](C8=CC(=O)OC8)CC[C@]7(O)C6CC[C@@H]5C4)O[C@@H]3C)O[C@@H]2C)C[C@H](O)[C@@H]1O` (stereo partly specified) displayed an EC50 of 4 µM. The EC50 values of the last two compounds are within 1.5-fold of each other.

In turn, `CC(COc1ccccc1)NC(C)[C@H](O)c1ccc(O)cc1` (stereo partly specified) registered an EC50 of 4.3 µM.

In the case of `CC(=O)O[C@]1(C(C)=O)CCC2C3C=C(Cl)C4=CC(=O)[C@@H]5C[C@@H]5[C@]4(C)C3CC[C@@]21C` (stereo partly specified), the EC50 came out at 4.7 µM. This EC50 and that of the compound before are within 1.5-fold of each other.

As for `O=C1c2ccccc2C(=O)C1c1ccccc1`, the EC50 worked out at 4.6 µM.

For `Cc1ccc(C(=O)c2ccc(CC(=O)O)n2C)cc1`, the EC50 came out at 5 µM. This EC50 and that of the compound before are within 1.5-fold of each other.
